The target in the assay is Prothrombin (Homo sapiens, UniProt P00734). As to the kind of experiment: In vitro inhibitory activity against human Prothrombin.

Square brackets hold non-standard residues; d marks the D form. Peptide text beside a SMILES is read from it. Tic = O=C(O)[C@@H]1Cc2ccccc2CN1

Turning to `CC(C)(C)OC(=O)NC(C(=O)N1CCC[C@H]1C(=O)N[C@H](C=O)CCCN=C(N)N)c1cccc2ccccc12` (stereo in doubt; 12), the IC50 (in general, the point on the concentration scale where inhibition reaches its midpoint) was 55 nM.

The molecule `CC(C)(C)OC(=O)N[C@@H](C(=O)N1CCC[C@H]1C(=O)N[C@H](C=O)CCCNC(=N)N)c1ccc2ccccc2c1` came in with an IC50 of 18 nM.

Consider `CC[C@@H](C(=O)N1CCC[C@H]1C(=O)N[C@H](C=O)CCCNC(=N)N)c1ccccc1`, for which the half-maximal inhibitory concentration (IC50) was found to be 130 nM.

`C[C@H](C(=O)N1CCC[C@H]1C(=O)N[C@H](C=O)CCCNC(=N)N)c1ccccc1` came in with an IC50 of 5100 nM.

The molecule `CC(C)(C)OC(=O)NC(C(=O)N1CCC[C@H]1C(=O)N[C@H](C=O)CCCN=C(N)N)c1cccc2ccccc12` (stereo in doubt; 13) showed a half-inhibitory concentration (IC50) of 85 nM.

Molecule `N=C(N)NCCC[C@@H](C=O)NC(=O)[C@@H]1CCCN1C(=O)[C@H]1NCCc2ccccc21` yielded an IC50 of 19 nM.

With `N=C(N)NCCC[C@@H](C=O)NC(=O)[C@@H]1CCCN1C(=O)[C@@H]1Cc2ccccc2CN1` (H-[Tic]-Pro-Arg-aldehyde), the concentration for half-maximal inhibition (IC50) turned out to be 25 nM.

The molecule `CC(C)(C)OC(=O)N[C@@H](C(=O)N1CCC[C@H]1C(=O)N[C@H](C=O)CCCN=C(N)N)c1cccc(C(F)(F)F)c1` yielded a half-maximal inhibitory concentration (IC50) of 27 nM.

The molecule `C[C@@H](C(=O)N1CCC[C@H]1C(=O)N[C@H](C=O)CCCNC(=N)N)c1ccccc1` had a concentration for half-maximal inhibition (IC50) of 94 nM.

Regarding `CO[C@@H](C(=O)N1CCC[C@H]1C(=O)N[C@H](C=O)CCCN=C(N)N)c1ccccc1`, the IC50 stood at 250 nM.

`CC(C)(C)OC(=O)N[C@@H](C(=O)N1CCC[C@H]1C(=O)N[C@H](C=O)CCCNC(=N)N)c1cccc2ccccc12` yielded a half-inhibitory concentration (IC50) of 23 nM.
